Legend:
[1] = system: focal cerebral ischemia; assay: Rat MCAO model, time schedules of administration (Example 11); format: in vivo; settings: 25 hrs post, 48 h
Procedure: The compounds were tested on a standardized rodent focal cerebral ischemia model produced by permanent occlusion of the right middle cerebral artery (MCA) plus one hour of tandem carotid artery occlusion according to Chen et al. A total of 96 animals underwent MCAo using subcutaneous administration of all test articles, according to the experimental design illustrated in Table 5 below. Three compounds at one predetermined dose were compared to vehicle and assigned to three different time schedules of administration relative to the time of MCAo. […] The time schedules for administration of all treated groups were divided as follows:
A second group of eighteen animals were used to test compound A (782236) using the treatment schedule, shown (a, b & c) above via intravenous (I.V.) administration. Groups of n=5 animals per treatment time period with compound A and 3 animals per control group via tail vein.
Animal Preparation and Middle Cerebral Artery Occlusion. Male, adult, Sprague-Dawley rats (Charles River), weighing 300-400 grams, were used for the study. All animals were acclimated at least for five days before entering the study. Animals were housed in a standard animal facility and fed with commercial rodent chow ad libitum. All animals were anesthetized via intramuscular injection (4 mL/kg) of “cocktail” containing ketamine (25 mg/mL), xylazine (1.3 mg/mL) and acepromazine (0.33 mg/mL). Both carotid arteries were separated with great caution to minimize the vagal nerve stimulation. The right proximal MCA trunk was exposed through a subtemporal craniectomy without transecting the facial nerve. […] Immediately following MCA occlusion, both of the common carotid arteries were occluded for 1 hour using surgical aneurysm micro-clips (ROBOZ INC). Animals were put into temperature regulated recovery chamber for 1 hour before the clips were removed from the common carotid arteries. Body temperature was maintained at 37±0.5° C. during the surgery using a heating blanket connected to a temperature controller.
Experimental Groups and Compound Administration. A total of 96 animals underwent MCAo using subcutaneous administration of all test articles, according to the experimental design illustrated in Table 5 below. Three compounds at one predetermined dose were compared to vehicle and assigned to three different time schedules of administration relative to the time of MCAo. […] The time schedules for administration of all treated groups were divided as follows:
A second group of eighteen animals were used to test compound A (782236) using the treatment schedule, shown (a, b & c) above via I.V. administration. Groups of n=5 animals per treatment time period with compound A and 3 animals per control group via tail vein.
Infarct Measurement. Forty-eight hours following MCAo, animals were euthanized with inhalation of CO2. Brains were removed and chilled in ice saline for 10 min. The brains were put in a metal rodent brain slicer. Each rat brain was cut coronally into 7 sections, with each section being 2 mm thick. The brain sections were immersed in 2% TTC solution for 30 min at 37° C. The areas of cerebral infarcts were determined on seven slices, using a computer-interfaced imaging system, Image-Pro® Plus, Version 4.4 for Windows (Media Cybernetics, MD). Infarct areas were then summed among slices and multiplied by slice thickness to give the total infarct volume.
Statistics. All data are expressed as mean±SEM. In Section A, infarct volume was analyzed using Student t Test. A p value of ≦0.05 was considered a statistically significant difference. All statistical analyses were performed with the software package JMP version 4.0 (SAS Institute Inc., Cary, N.C.).

[2] = system: focal cerebral infarcts (MCAo); assay: Forelimb placing test, Tamura MCAo model; format: in vivo, rat; settings: AVG, 0=normal, 10=maximally impaired
Excerpt: Surgical Preparation. Middle Cerebral Artery Occlusion (MCAo), Tamura Model. Focal cerebral infarcts were made by permanent occlusion of the proximal right middle cerebral artery using a modification of the method of Tamura et al. […] The temporalis muscle was bisected and reflected through an incision made midway between the eye and the eardrum canal. The proximal MCA was exposed through a subtemporal craniectomy without removing the zygomatic arch and without transecting the facial nerve. […] Animals were euthanatized at various time periods after MCA occlusion and the brains are removed for histological analysis. Behavioral Analysis. Two behavioral tests were performed, the limb placing and body swing test. […] Limb Placing. The limb placing tests were divided into both forelimb and hindlimb tests. For the forelimb-placing test, the examiner held the rat close to a tabletop and scored the rat's ability to place the forelimb on the tabletop in response to whisker, visual, tactile, or proprioceptive stimulation. Similarly, for the hindlimb placing test, the examiner assessed the rat's ability to place the hindlimb on the tabletop in response to tactile and proprioceptive stimulation. […] Typically, there was a slow and steady recovery of limb placing behavior during the first month after stroke. Experimental Groups and Compound Administration. A total of 80 animals underwent MCAo using subcutaneous administration of all test articles, according to the experimental design illustrated in Table 16. […] All animals were treated with the compound(s)/vehicle(s) as a blinded random investigation. The dose and route of administration is given below in Table 16.

[3] = SC, schedule a: 2 hrs pre, 3 hrs post, doses per Table 5 (782236 1/0.5/0.5, others 10/5/5 mg/kg)
[4] = SC, schedule b: 1 hr post, 3 hrs post, doses per Table 5
[5] = SC, schedule c: 3 hrs post, 6 hrs post, doses per Table 5
[6] = administered six hours after MCAo
[7] = administered three hours after MCAo

Compound | infarction volume [1, 3] | infarction volume [1, 4] | infarction volume [1, 5] | Forelimb placing test score, D0 [2, 6] | Forelimb placing test score, D1 [2, 6] | Forelimb placing test score, D3 [2, 6] | Forelimb placing test score, D7 [2, 6] | Forelimb placing test score, D0 [2, 7] | Forelimb placing test score, D1 [2, 7] | Forelimb placing test score, D3 [2, 7] | Forelimb placing test score, D7 [2, 7] | infarction volume ([1]; IV, schedule a: 2 hrs pre, 3 hrs post, 1/0.5/0.5 mg/kg) | infarction volume ([1]; IV, schedule b: 1 hr post, 3 hrs post) | infarction volume ([1]; IV, schedule c: 3 hrs post, 6 hrs post)
CC(C)c1c(C(=O)Nc2ccccc2)c(-c2ccccc2)c(-c2ccc(F)cc2)n1CC[C@@H](O)C[C@@H](O)CC(=O)O [atorvastatin, reference compound] | 80.35±30.41 mm^3 | 121.52±22.58 mm^3 | 127.16±25.77 mm^3 | 0 | 8.8 | 8.8 | 8 | 0 | 9.2 | 7.3 | 5.6 |  |  | 
CC(C)c1c(C(=O)Nc2ccccc2)c(-c2ccccc2)c(-c2ccc(F)cc2)n1CC(O)C(O)C(O)C(O)CO (stereo not drawn) [Compound 782236] | 138.6±35.13 mm^3 | 171.04±33.04 mm^3 | 155.53±29.66 mm^3 | 0 | 9.2 | 8.9 | 7 | 0 | 8.4 | 6.7 | 5.9 | 186.8±9.2 mm^3 | 122.8±17.9 mm^3 | 73.8±18.1 mm^3
CC(C)c1[nH]c(-c2ccc(F)cc2)c(-c2ccccc2)c1C(=O)Nc1ccccc1 [Compound 781430] | 78.89±28.46 mm^3 | 96.51±31.62 mm^3 | 121.39±22.53 mm^3 | 0 | 8.9 | 8.5 | 6 | 0 | 8.9 | 7.6 | 4.3 |  |  | 
